Entries after “also recorded” stand apart in the source; their conditions may differ.
Tests used:
[1] = cited from earlier work
chronic fatigue syndrome = test: Effect of menthocarvol (oral capsule or topical ointment) on chronic fatigue; assay type: in vivo, human
Experimental: (§1) In one embodiment menthocarvol was made by reacting carvacrol with hydrogen under a nitrogen atmosphere in the presence of platinum, as a catalyst, to form menthocarvol. The menthocarvol was administered orally as capsules and topically as ointments to human volunteers to establish that the preliminary preferred formulation functioned to cure specific disease conditions.
The presence of bacteria ([…]), parasites (entamoeba gingivalis, or trichomonas tenax) and/or fungi (Candida, or Aspergillus species) in the mouth, nose, or sinus cavities is often accompanied by a history of generalized malaise, fatigue, and frequent headaches, frequently referred to as general fatigue syndrome. Laboratory testing for pathogens is usually negative. People suffering from fatigue syndrome typically function at a substantially lower level of activity than they were capable of before the onset of fatigue symptoms. Fatigue is not improved by bed rest and may be exacerbated by physical or mental activity. Moreover, the presence of some microorganisms in the stomach (i.e. Helicobacter pylori) and bowels, especially in diverticulas (outpouchings of the intestinal mucosa), is often accompanied by malaise and headache.
In the United States, colonic diverticula occurs in approximately 50% of individuals older than 60 years of age. Treatment with menthocarvol of volunteers suffering from this chronic fatigue syndrome was conducted. The menthocarvol therapy was administered in an oral dose of a single 250 mg capsule (17.5 mg active ingredient) or 500 mg capsule (35 mg active ingredient). Two of the subjects, who had localized pain in an extremity, were treated topically with menthocarvol in an ointment (3% active ingredient in lanolin oil). A total of six active individuals complaining of fatigue syndrome participated in this study.

diarrhea = test: Effect of menthocarvol capsules on patients with diarrhea; assay type: in vivo, human; conditions: for time to complete recovery: with oral rehydration
Experimental: as §1
Four human subjects were selected for this study with menthocarvol. In this study, the diarrhea symptoms were likely, from either acute bacterial infectous causes or food poisoning. The menthocarvol was administered orally in the form of capsules. Each 500 mg capsule contained 35 mg of the active ingredient. The therapy for each subject was usually oral administration of two 500 mg capsules.

periodontal disease = test: Effect of orally applied menthocarvol solution on periodontal disease; assay type: in vivo, human
Experimental: A study on three subjects was performed to test the effectiveness of orally applied ointments containing menthocarvol to treat periodontal disease in humans. The preliminary formulation used was first was a 3% solution of menthocarvol followed by treatment with a 0.6% solution, administered twice a week for three months. The treatment was given with a syringe and applied orally to the affected areas between the teeth at the gum line. […] This phenomenon disappeared in approximately two hours.

[2] = six individuals, oral and topical formulations
[3] = four patients, two 500 mg capsules orally

Structure (SMILES) | solubility in lipids [1] | effect on fatigue syndrome symptoms (chronic fatigue syndrome; Case 4, oral 500 mg capsule (35 mg active ingredient) after breakfast for five days) | effect on fatigue syndrome symptoms (chronic fatigue syndrome; single cases, oral 250 mg capsule (17.5 mg active ingredient) after breakfast for five or ten days) | adverse side effects (chronic fatigue syndrome; single cases, oral 250 mg or 500 mg capsule after breakfast for five days) | effect on localized pain in an extremity (chronic fatigue syndrome; single cases, topical cream, 3% active ingredient in lanolin oil, applied before exercise) | effect on fatigue and pain, all cases (chronic fatigue syndrome; [2]) | unpleasant or adverse side effects, all subjects (chronic fatigue syndrome; [2]) | time to complete recovery (diarrhea; Case 3, two 500 mg capsules orally) | cure of diarrhea, all four patients (diarrhea; [3]) | unpleasant or adverse side effects (diarrhea; [3]) | time to complete recovery (diarrhea; single cases, two 500 mg capsules orally) | local side effect (tingling sensation) (periodontal disease; 0.6% solution) | infection and observable periodontal disease (periodontal disease; 0.6% solution only, same three patients) | local side effect on gums and tongue (periodontal disease; 3% solution) | necrotic effect on the epithelial cells lining the mouth cavity (periodontal disease; 3% solution) | time until the tingling sensation disappeared (periodontal disease; 3% solution) | inflammation of gums (periodontal disease; 3% solution applied at the gum line, three patients)
Cc1ccc(C(C)C)cc1O [carvacrol, 5-isopropyl-2-methylphenol] | soluble in lipids | – | – | – | – | – | – | – | – | – | – | – | – | – | – | – | –
CC(C)C1CCC(C)C(O)C1 (stereo not drawn) [menthocarvol, hexahydrocarvacrol] | – | the fatigue and muscle soreness disappeared | the symptoms of malaise and unrefreshing sleep disappeared; also recorded: The sore throat and pain disappeared after five days of treatment; also recorded: the symptoms of fatigue and headache were relieved | No adverse side effects were reported; also recorded: No adverse side affects were reported | The signs of leg and foot muscle fatigue disappeared after the tenth treatment; also recorded: The pain and swelling was significantly reduced after six applications | positive effects on the fatigue and pain | No subjects complained of unpleasant or adverse side effects | 24 h | the diarrhea was cured quickly | None of the patients reported unpleasant or adverse side effects | three and two | This side effect was not observed | some improvement | a temporary tingling sensation on the gums | no observable necrotic effect | approximately two | a marked improvement in the inflammation of their gums was observed
CC1CCC(C(C)C)C(O)C1 (stereo not drawn) [menthol, 1-Methyl-4-isopropyl cyclohexane-3-ol, reference compound] | soluble in lipids | – | – | – | – | – | – | – | – | – | – | – | – | – | – | – | –
